Experimental data: PubChem BioAssay (NCI)
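Briefly, cells in 96-well plates were exposed to five compound concentrations for 48 h, and endpoints were estimated by linear interpolation. TGI denotes the concentration required for complete inhibition of growth.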

How the values were obtained:
Experiment in all cases: DTP human tumour cell line panel, 48 h
[1] = system: 786-0 renal
[2] = system: A498 renal
[3] = system: A549 NSCLC
[4] = system: ACHN renal
[5] = system: BT-549 breast
[6] = system: CAKI-1 renal
[7] = system: CCRF-CEM leukemia
[8] = system: COLO 205 colon
[9] = system: DU-145 prostate
[10] = system: EKVX NSCLC
[11] = system: HCT-116 colon
[12] = system: HCT-15 colon
[13] = system: HOP-62 NSCLC
[14] = system: HOP-92 NSCLC
[15] = system: HS 578T breast
[16] = system: HT29 colon
[17] = system: IGROV1 ovarian
[18] = system: K-562 leukemia
[19] = system: KM12 colon
[20] = system: LOX IMVI melanoma
[21] = system: M14 melanoma
[22] = system: MALME-3M melanoma
[23] = system: MCF7 breast
[24] = system: MDA-MB-231 breast
[25] = system: MDA-MB-435
[26] = system: MOLT-4 leukemia
[27] = system: NCI-H226 lung
[28] = system: NCI-H23 lung
[29] = system: NCI-H460 lung
[30] = system: NCI-H522 lung
[31] = system: NCI/ADR-RES ovarian
[32] = system: OVCAR-3 ovarian
[33] = system: OVCAR-4 ovarian
[34] = system: OVCAR-5 ovarian
[35] = system: OVCAR-8 ovarian
[36] = system: PC-3 prostate
[37] = system: RPMI-8226 leukemia
[38] = system: RXF 393 renal
[39] = system: SF-268 CNS
[40] = system: SF-295 CNS
[41] = system: SK-MEL-2 melanoma
[42] = system: SK-MEL-28 melanoma
[43] = system: SK-MEL-5 melanoma
[44] = system: SK-OV-3 ovarian
[45] = system: SN12C renal
[46] = system: SNB-19 CNS
[47] = system: SW-620 colon
[48] = system: T-47D breast
[49] = system: TK-10 renal
[50] = system: U251 CNS
[51] = system: UACC-62 melanoma
[52] = system: UO-31 renal
[53] = system: HCC-2998 colon
[54] = system: HL-60(TB) leukemia
[55] = system: SF-539 CNS
[56] = system: SNB-75 CNS
[57] = system: SR leukemia
[58] = system: UACC-257 melanoma

## c1ccc(CCN2CCCCCC2)nc1
[1]
  TGI: > 100 µM
[2]
  TGI: > 100 µM
[3]
  TGI: > 100 µM
[4]
  TGI: > 100 µM
[5]
  TGI: > 100 µM
[6]
  TGI: > 100 µM
[7]
  TGI: > 100 µM
[8]
  TGI: > 100 µM
[9]
  TGI: > 100 µM
[10]
  TGI: > 100 µM
[11]
  TGI: > 100 µM
[12]
  TGI: > 100 µM
[13]
  TGI: > 100 µM
[14]
  TGI: > 100 µM
[15]
  TGI: > 100 µM
[16]
  TGI: > 100 µM
[17]
  TGI: > 100 µM
[18]
  TGI: > 100 µM
[19]
  TGI: > 100 µM
[20]
  TGI: > 100 µM
[21]
  TGI: > 100 µM
[22]
  TGI: > 100 µM
[23]
  TGI: > 100 µM
[24]
  TGI: > 100 µM
[25]
  TGI: > 100 µM
[26]
  TGI: > 100 µM
[27]
  TGI: > 100 µM
[28]
  TGI: > 100 µM
[29]
  TGI: > 100 µM
[30]
  TGI: > 100 µM
[31]
  TGI: > 100 µM
[32]
  TGI: > 100 µM
[33]
  TGI: > 100 µM
[34]
  TGI: > 100 µM
[35]
  TGI: > 100 µM
[36]
  TGI: > 100 µM
[37]
  TGI: > 100 µM
[38]
  TGI: > 100 µM
[39]
  TGI: > 100 µM
[40]
  TGI: > 100 µM
[41]
  TGI: > 100 µM
[42]
  TGI: > 100 µM
[43]
  TGI: > 100 µM
[44]
  TGI: > 100 µM
[45]
  TGI: > 100 µM
[46]
  TGI: > 100 µM
[47]
  TGI: > 100 µM
[48]
  TGI: > 100 µM
[49]
  TGI: > 100 µM
[50]
  TGI: > 100 µM
[51]
  TGI: > 100 µM
[52]
  TGI: > 100 µM

## CCOC(=O)c1cc2c(OC(C)=O)ccc(OC(C)=O)c2s1
[1]
  TGI: 6.24 µM
[2]
  TGI: 12.5 µM
[3]
  TGI: 28.6 µM
[4]
  TGI: 2.98 µM
[5]
  TGI: 4.97 µM
[6]
  TGI: 8.46 µM
[7]
  TGI: 5.29 µM
[8]
  TGI: 4.81 µM
[9]
  TGI: 17.1 µM
[10]
  TGI: 7.73 µM
[53]
  TGI: 22.2 µM
[11]
  TGI: 9 µM
[12]
  TGI: 3.34 µM
[54]
  TGI: 2.97 µM
[13]
  TGI: 23.9 µM
[14]
  TGI: 3.16 µM
[15]
  TGI: 5.51 µM
[16]
  TGI: 10.7 µM
[17]
  TGI: 6.52 µM
[19]
  TGI: 17.6 µM
[20]
  TGI: 3.09 µM
[21]
  TGI: 3.26 µM
[22]
  TGI: 3.6 µM
[23]
  TGI: 11.8 µM
[24]
  TGI: 4.64 µM
[25]
  TGI: 7.38 µM
[26]
  TGI: > 24 µM
[27]
  TGI: 55 µM
[28]
  TGI: 5.51 µM
[29]
  TGI: 22.2 µM
[30]
  TGI: 1.07 µM
[31]
  TGI: 5.79 µM
[32]
  TGI: 3.15 µM
[33]
  TGI: 31.3 µM
[34]
  TGI: 18.9 µM
[35]
  TGI: 3.51 µM
[36]
  TGI: 5.07 µM
[38]
  TGI: 3.42 µM
[39]
  TGI: 3.85 µM
[40]
  TGI: 18.3 µM
[55]
  TGI: 3.36 µM
[41]
  TGI: 7.72 µM
[42]
  TGI: 5.45 µM
[43]
  TGI: 6.69 µM
[44]
  TGI: 22.7 µM
[45]
  TGI: 5.11 µM
[46]
  TGI: 19.9 µM
[56]
  TGI: 5.62 µM
[57]
  TGI: > 22.7 µM
[49]
  TGI: 17.5 µM
[50]
  TGI: 10.4 µM
[58]
  TGI: 4.97 µM
[51]
  TGI: 4.08 µM
[52]
  TGI: 2.76 µM
